Measurements published in US9944645B2, “Imidazotriazines and imidazopyrimidines as kinase inhibitors” (Incyte Holdings Corporation, priority 2006, dated 2018).

Each compound was assayed against c-Met kinase (h-Met; histidine-tagged c-Met catalytic domain fusion protein) (Homo sapiens (Human), UniProt P08581) (assay: In Vitro c-Met Kinase Enzyme Assays). Settings: phosphorylation of poly Glu-Tyr, 5 μM ATP, 25 minutes at 30° C.
Format: biochemical
How it was run: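 His-tagged c-Met catalytic domain reacted 25 min at 30° C, within the linear initial-rate range. Phosphotyrosine detected by ELISA with peroxidase-labeled anti-phospho-tyrosine antibody and TMB, OD read at 450 nm (540 nm correction); IC50 from curve fit.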

c-Met kinase (h-Met; histidine-tagged c-Met catalytic domain fusion protein), sequence (P08581 1078-1345): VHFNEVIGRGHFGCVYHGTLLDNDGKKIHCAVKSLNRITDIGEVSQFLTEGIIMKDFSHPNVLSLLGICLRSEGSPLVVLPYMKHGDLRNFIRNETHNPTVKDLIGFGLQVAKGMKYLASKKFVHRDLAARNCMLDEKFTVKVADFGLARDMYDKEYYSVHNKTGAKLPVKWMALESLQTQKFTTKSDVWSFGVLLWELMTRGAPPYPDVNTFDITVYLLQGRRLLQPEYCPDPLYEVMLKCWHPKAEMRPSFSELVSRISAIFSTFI

Compound	IC50
CN(C)C(=O)c1ccc(-c2ccc(-c3cnc4ncc(C5(c6ccc7ncccc7c6)CC5)n4n3)cc2)cn1 [Example 98, N,N-Dimethyl-5-{4-[7-(1-quinolin-6-ylcyclopropyl)imidazo[1,2-b][1,2,4]triazin-2-yl]phenyl}pyridine-2-carboxamide]	< 500 nM
CN(C)C(=O)c1cnn(-c2cnc3ncc(C4(c5ccc6ncccc6c5)CC4)n3c2)c1 [Example 24, N,N-Dimethyl-1-[3-(1-quinolin-6-ylcyclopropyl)imidazo[1,2-a]pyrimidin-6-yl]-1H-pyrazole-4-carboxamide]	< 500 nM
O=C(NCc1ccccn1)c1ccc(-c2cnc3ncc(C4(c5ccc6ncccc6c5)CC4)n3n2)cc1 [Example 106, N-(Pyridin-2-ylmethyl)-4-[7-(1-quinolin-6-ylcyclopropyl)imidazo[1,2-b][1,2,4]triazin-2-yl]benzamide]	< 500 nM
O=C(NC1CC1)c1ccc(-c2cnc3ncc(C4(c5ccc6ncccc6c5)CC4)n3n2)cc1F [Example 101, N-Cyclopropyl-2-fluoro-4-[7-(1-quinolin-6-ylcyclopropyl)imidazo[1,2-b][1,2,4]triazin-2-yl]benzamide]	< 500 nM
O=C(NC1(c2ccccn2)CC1)c1ccc(-c2cnc3ncc(C4(c5ccc6ncccc6c5)CC4)n3n2)cc1 [Example 109, N-(1-Pyridin-2-ylcyclopropyl)-4-[7-(1-quinolin-6-ylcyclopropyl)imidazo[1,2-b][1,2,4]triazin-2-yl]benzamide]	< 500 nM
O=C(NCCOc1ccccc1)c1ccc(-c2cnc3ncc(C4(c5ccc6ncccc6c5)CC4)n3c2)cc1 [Example 42, N-(2-Phenoxyethyl)-4-[3-(1-quinolin-6-ylcyclopropyl)imidazo[1,2-a]pyrimidin-6-yl]benzamide]	< 500 nM
CNC(=O)[C@H](C)NC(=O)c1ccc(-c2cnc3ncc(C4(c5ccc6ncccc6c5)CC4)n3c2)cc1 [Example 50, N-[(1S)-1-Methyl-2-(methylamino)-2-oxoethyl]-4-[3-(1-quinolin-6-ylcyclopropyl)imidazo[1,2-a]pyrimidin-6-yl]benzamide]	< 500 nM
Cc1cnn(-c2cnc3ncc(C4(c5ccc6ncccc6c5)CC4)n3c2)c1 [Example 23, 6-{1-[6-(4-Methyl-1H-pyrazol-1-yl)imidazo[1,2-a]pyrimidin-3-yl]cyclopropyl}quinoline]	< 500 nM

Next, values leading:

IC50	Compound
< 500 nM	O=C(NC1CC1)c1cc(F)c(-c2cnc3ncc(C4(c5ccc6ncccc6c5)CC4)n3c2)cc1F [Example 79, N-Cyclopropyl-2,5-difluoro-4-[3-(1-quinolin-6-ylcyclopropyl)imidazo[1,2-a]pyrimidin-6-yl]benzamide]
< 500 nM	CN(C)S(=O)(=O)c1ccc(-c2cnc3ncc(C4(c5ccc6ncccc6c5)CC4)n3c2)cc1 [Example 65, N,N-Dimethyl-4-[3-(1-quinolin-6-ylcyclopropyl)imidazo[1,2-a]pyrimidin-6-yl]benzenesulfonamide]
< 500 nM	O=C1OCCN1Cc1ccc(-c2cnc3ncc(C4(c5ccc6ncccc6c5)CC4)n3c2)cc1F [Example 70, 3-{2-Fluoro-4-[3-(1-quinolin-6-ylcyclopropyl)imidazo[1,2-a]pyrimidin-6-yl]benzyl}-1,3-oxazolidin-2-one]
< 500 nM	O=C(c1ccc(-c2cnc3ncc(C4(c5ccc6ncccc6c5)CC4)n3c2)cc1)N1CC[C@H](F)C1 [Example 35, 6-{1-[6-(4-[(3S)-3-Fluoropyrrolidin-1-yl]carbonylphenyl)imidazo[1,2-a]pyrimidin-3-yl]cyclopropyl}quinoline]
